System: hippocampal kindled rats
Experiment: Hippocampal kindled rat model
Type: in vivo, Sprague-Dawley rats
Parameters: After-Discharge Threshold: unit not given here
Conditions: for Mean Seizure Score: seizure score scale 1-5
Description: Hippocampal Kindled Rat Model
In the hippocampal kindling model (Lothman E W, et al., Epilepsy Res., 1988, 2(6) 367–79), adult male Sprague-Dawley rats are surgically implanted with bipolar electrodes. Seizure score is assessed as follows: (1) mouth and facial movements; (2) above symptoms plus head nodding; (3) above symptoms plus forelimb clonus; (4) above symptoms plus rearing; and (5) above symptoms plus falling.

[1] = 50 mg/kg intraperitoneally, n=8
[2] = 100 mg/kg intraperitoneally, n=8
[3] = 200 mg/kg intraperitoneally, n=8
[4] = 300 mg/kg intraperitoneally, 0.25 hr after dose, n=2
[5] = 300 mg/kg intraperitoneally, 1 hr after dose, n=2
[6] = 300 mg/kg intraperitoneally, 2 hr after dose, n=2
[7] = 300 mg/kg intraperitoneally, 4 hr after dose, n=2

Compound: NC(=O)OC[C@H](OC(N)=O)c1ccccc1Cl [enantiomer of Formula (Ib)]
- toxicity of dose (50 mg/kg intraperitoneally): nontoxic
- % Protected [1]: 12.50%
- After-Discharge Duration [1]: 75.88 s
- Mean Seizure Score [1]: 3.75
- effect on after-discharge threshold and duration (50 mg/kg intraperitoneally, n=8 per group, over approximately a 3 hour time period): time-dependent reduction in after-discharge threshold and duration
- % Protected [2]: 33.33%
- After-Discharge Duration [2]: 53.17 s
- Mean Seizure Score [2]: 3
- % Protected [3]: 87.50%
- After-Discharge Duration [3]: 42 s
- Mean Seizure Score [3]: 1.63
- toxicity of dose (300 mg/kg intraperitoneally): nontoxic
- After-Discharge Duration [4]: 44 s
- After-Discharge Threshold [4]: 105
- Mean Seizure Score [4]: 2.5
- After-Discharge Duration [5]: 50 s
- After-Discharge Threshold [5]: >200
- Mean Seizure Score [5]: 1.5
- After-Discharge Duration [6]: 53 s
- After-Discharge Threshold [6]: >200
- Mean Seizure Score [6]: 1.5
- After-Discharge Duration [7]: 111 s
- After-Discharge Threshold [7]: 200
- Mean Seizure Score [7]: 2.5
- effect against the expression of Stage 5 seizures (300 mg/kg intraperitoneally, n=2, over a 4 hour time period): effective
- ED50 (Rattus norvegicus, ip, dose range 50 to 200 mg/kg, intraperitoneally, 95% confidence interval 67.9 to 189.8 mg/kg, read-out: calculated ED50 value for reduction of the seizure score from 5 to 3 or less): 112 mg/kg
- anti-kindling effects (hippocampal-kindled rat model): potent anti-kindling effects
